{"source": "patent US20040261139A1", "about": "“Androgen receptor knock-out transgenic animals” (priority 2001, published 2004)", "key": {"p21 (WAF1/CIP1) gene [1]": {"system": "p21 (WAF1/CIP1) gene", "test": "Endogenous p21 (WAF1/CIP1) gene expression in PC-3 (AR2) cells stably transfected with AR", "format": "cell-based", "procedure": "(§3) A. MCF-7 cells were transfected using Superfect (Qiagen) with 2 μg of pSG5-AR with or without 4 μg of BRCA1, as indicated. Cells were cultured in the presence of 10 nM DHT or vehicle, as indicated. B. PC-3(AR2) cells were transfected under the same conditions as the MCF-7 cells in A. except that AR was not transfected. […] PC-3(AR2) cells transfected with BRCA1 were cultured in the presence of vehicle, 10 nM DHT, or 1 μM hydroxyflutamide (HF).\n(§4) The ability of AR and BRCA1 to regulate the endogenous p21 (WAF1/CIP1) gene in MCF-7 breast cancer cells was examined."}, "p21 (WAF1/CIP1) gene [2]": {"system": "p21 (WAF1/CIP1) gene", "settings": "10 nM DHT, MCF-7 cells transfected with AR", "procedure": "as §3, §4"}, "ZR-ARKO derived tumors": {"system": "ZR-ARKO derived tumors", "settings": "ovarectomized nude mice, estradiol and DHT pellets; expected result", "protocol": "(§1) After the initial in vitro characterization of the ARKO cells, mouse xenograft experiments are performed. The ARKO cells are subcutaneously injected into ovarectomized nude mice and the parental cell lines serve as xenograft controls. This experiment allows for the comparison of AR positive and AR negative breast carcinoma cells in animals that carry a functional AR gene without the potential confounding effects of using differently derived tumor cell lines. Tumor growth rate is compared in ARKO and parental cell line recipients in response to estradiol treatment, DHT treatment, or combined administration of estradiol and DHT. […] In addition to growth rate, tumors are examined histologically to determine the morphology and degree of vascularization between ARKO cell tumors and tumors generated by the parental cell lines under the different hormonal regimes.\n(§2) Female homozygous nude mice (obtained from the Jackson Laboratory) are ovarectomized. […] Ovarectomized mice are also implanted with 1.5 mg 90 day release progesterone hormonal tablets. Only the ovarian cancer based cell lines will be examined in progesterone treated animals. Animals will be subcutaneously injected with […] of the ARKO or parental cells at the time of hormonal implant Hormonal pellets will be replaced as required."}, "ZR-75-1 tumors": {"system": "ZR-75-1 tumors", "settings": "ovarectomized nude mice, estradiol and DHT pellets; expected result", "protocol": "as §1, §2"}, "AR": {"target": "T1, AR (Homo sapiens, UniProt P10275)", "T1 construct": "expressed in transfected cells; host or cells: DU145", "T1 sequence (P10275 1-920)": "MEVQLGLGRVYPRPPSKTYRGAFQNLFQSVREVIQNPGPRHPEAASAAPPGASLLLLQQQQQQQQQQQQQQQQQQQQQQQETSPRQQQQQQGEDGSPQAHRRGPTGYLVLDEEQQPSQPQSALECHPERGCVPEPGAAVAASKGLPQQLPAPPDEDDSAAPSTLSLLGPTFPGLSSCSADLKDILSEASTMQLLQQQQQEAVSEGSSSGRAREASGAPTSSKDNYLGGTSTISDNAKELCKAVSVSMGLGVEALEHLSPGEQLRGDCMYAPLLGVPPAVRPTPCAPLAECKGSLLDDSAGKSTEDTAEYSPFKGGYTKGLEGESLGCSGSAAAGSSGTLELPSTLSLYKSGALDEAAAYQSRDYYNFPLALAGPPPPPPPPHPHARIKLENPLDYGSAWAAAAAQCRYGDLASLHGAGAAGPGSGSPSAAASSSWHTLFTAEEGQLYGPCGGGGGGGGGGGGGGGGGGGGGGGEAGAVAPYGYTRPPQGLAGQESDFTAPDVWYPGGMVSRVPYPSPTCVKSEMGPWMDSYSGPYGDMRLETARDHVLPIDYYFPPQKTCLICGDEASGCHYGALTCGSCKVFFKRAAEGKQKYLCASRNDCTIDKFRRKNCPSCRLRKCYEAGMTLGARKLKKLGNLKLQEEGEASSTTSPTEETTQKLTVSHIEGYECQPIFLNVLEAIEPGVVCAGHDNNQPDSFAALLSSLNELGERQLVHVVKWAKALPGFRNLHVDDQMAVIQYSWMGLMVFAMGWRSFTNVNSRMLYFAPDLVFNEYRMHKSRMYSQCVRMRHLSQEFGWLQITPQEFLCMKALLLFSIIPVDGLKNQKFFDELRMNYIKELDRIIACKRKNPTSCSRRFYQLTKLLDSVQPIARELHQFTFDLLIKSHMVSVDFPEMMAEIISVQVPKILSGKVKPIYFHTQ", "test": "AR transcriptional activity, MMTV-CAT reporter gene in DU145 cells transfected with AR with ARA70 or empty vector", "format": "cell-based", "settings": "10^-10 to 10^-6 M, presence or absence of ARA70", "description": "The DHT treatments were taken as the positive control. Data represents an average of three independent experiments.\nPSA is an androgen target gene that is not transcriptionally activated by the ER (58)."}}, "note": "Like-named read-outs stand apart in the source and are kept apart here."}
{"smiles": "C[C@]12CCC(=O)C[C@@H]1CC[C@@H]1[C@@H]2CC[C@]2(C)[C@@H](O)CC[C@@H]12", "note": "[DHT, 5α-dihydrotestosterone]", "values": [{"measurement": "endogenous p21 (WAF1/CIP1) gene expression", "setting": "p21 (WAF1/CIP1) gene [1]; 10 nM DHT, PC-3 (AR2) cells", "value": "confirmed"}, {"measurement": "endogenous p21 (WAF1/CIP1) gene expression", "setting": "p21 (WAF1/CIP1) gene [2]", "value": "induced endogenous p21 (WAF1/CIP1) gene expression"}, {"measurement": "estradiol induced proliferation of ZR-ARKO derived tumors in the presence of DHT", "setting": "ZR-ARKO derived tumors", "value": "expected to continue estradiol induced proliferation"}, {"measurement": "estradiol-mediated proliferation of ZR-75-1 tumors", "setting": "ZR-75-1 tumors", "value": "expected to inhibit"}]}
{"smiles": "C[C@]12CC[C@@H]3c4ccc(O)cc4C[C@@H](CCCCCCCCC[S+]([O-])CCCC(F)(F)C(F)(F)F)[C@H]3[C@@H]1CC[C@@H]2O", "note": "(stereo partly drawn) [ICI182, 780]", "values": [{"measurement": "induction of AR mediated transcription", "setting": "AR", "value": "unable to induce AR mediated transcription"}]}
{"smiles": "CC(C)(O)C(=O)Nc1ccc([N+](=O)[O-])c(C(F)(F)F)c1", "note": "[hydroxyflutamide]", "values": [{"measurement": "effect on DHT induction of p21 (WAF1/CIP1)", "setting": "p21 (WAF1/CIP1) gene [1]; 1 μM hydroxyflutamide, PC-3 (AR2) cells transfected with BRCA1", "value": "blocks the DHT induction"}]}
